# Laboratory results as given in patent US20050282751A1, “Therapeutic agent for renal anemia” (Ajinomoto Co., Inc., priority 2004, published 2005).
# Assays:
# [1] = system: patients with renal anemia; assay: Clinical test: hemoglobin in patients with renal anemia, oral Argi U granules; type: in vivo, human
# Description: The administration period was at the longest 18 weeks. The amount of each of hemoglobin, BUN (blood urea nitrogen), Cre (creatinine), Fe and erythropoietin in blood was determined by methods described below.
# Hemoglobin was determined with an automatic blood cell analysis device.
# The hemoglobin concentration of each case determined before and after the administration of the amino acid preparation is shown in Table 2.
# For typical three patients, a change in hemoglobin concentration was given as ΔHb value (amount of change of hemoglobin) calculated by deducting the hemoglobin concentration before the administration of the amino acid preparation from the hemoglobin concentration after the administration thereof in FIG. 1.
# [2] = system: patients with renal anemia; assay: Clinical test: side effects; type: in vivo, human
# Description: 1.3 g of an amino acid preparation (trade name: Argi U granules, a product of Ajinomoto Pharma Co. Ltd.) (1.0 g of […] in conservative stage accompanying renal anemia, whose age, hemocytometric results and results of general biochemical tests are shown in Table 1). The administration period was at the longest 18 weeks. The amount of each of hemoglobin, BUN (blood urea nitrogen), Cre (creatinine), Fe and erythropoietin in blood was determined by methods described below.
# [3] = system: patients with renal anemia; assay: Clinical test: Cre (creatinine), enzymatic method; type: in vivo, human; conditions: effective cases 1, 2, 4 and 6
# Excerpt: (§1) 1.3 g of an amino acid preparation (trade name: Argi U granules, a product of Ajinomoto Pharma Co. Ltd.) (1.0 g of arginine) was orally administered in two portions everyday to each of 8 patients having an illness diagnosed as renal anemia (cases of chronic renal failure in conservative stage accompanying renal anemia, whose age, hemocytometric results and results of general biochemical tests are shown in Table 1). The administration period was at the longest 18 weeks. The amount of each of hemoglobin, BUN (blood urea nitrogen), Cre (creatinine), Fe and erythropoietin in blood was determined by methods described below.
# Cre was determined by an enzymatic method (sarcosine oxidase[…]POD method).
# [4] = system: patients with renal anemia; assay: Clinical test: erythropoietin in blood, ELISA; type: in vivo, human
# Excerpt: as §1
# Erythropoietin was determined by ELISA method.
# [5] = system: patients with renal anemia; conditions: conventional treatment with rHuEPO preparation; cited from earlier work
compound,measurement,setting,value
N=C(N)NCCC[C@H](N)C(=O)O [L-arginine],anemia after discontinuance of administration,[1]; 2 cases in the 7 effective cases,anemia became worse
same,Hb after further administration,"[1]; 2.6 g/day for 1 month, increased from 10.7 g/dl",11.5 g/dL
same,judgement of results,[1]; cases 1 to 7,effective
same,judgement of results,[1]; cases 8 and 9,ineffective
same,Hb after discontinuance of administration,[1]; other 3 effective cases,Hb was not lowered
same,side effect,[2]; 9 administration cases,No evident side effect
same,side effect,[2]; further administration of 2.6 g/day for 1 month,no obvious side effect
same,renal function,[3],recovery of the renal function was recognized
same,EPO concentration in blood relative to rHuEPO preparation treatment,[4]; L-arginine versus conventional rHuEPO treatment,less than ⅙
same,"EPO concentration in blood, at the highest",[4]; after the administration of L-arginine,about 20 mU/mL
same,Epo productivity (Epo concentration in blood),[4]; all the effective cases,increased
same,Epo productivity (Epo concentration in blood),[4]; the two ineffective cases,lowered
"rHuEPO preparation: recombinant erythropoietin preparation, conventional treatment of renal anemia",EPO concentration in blood,[5],about 130 mU/mL
